From the NIST ThermoML archive (doi:10.1021/acs.jced.6b00929)
± gives the expanded uncertainty stated by the source.

Key:
[1] = Molar enthalpy of transition or fusion; conditions: Crystal; DSC
[2] = Crystal; DTA

For `CC(=O)Oc1ccc(C2CC(=O)c3c(OC(C)=O)cc(OC(C)=O)cc3O2)cc1` (configuration not stated) [4',5,7-triacetoxyflavanone], the “Molar enthalpy of transition or fusion” value [1] was 4.97 ± 0.263 kcal/mol and the Normal melting temperature [2] was 73.80 ± 0.46 °C.
